Measured values reported in patent publication US5013743A, “Selective antibacterial agent against campytobacter” (Takeda Chemical Industries, Ltd., priority 1989, dated 1991).

Assays:
C. pylori NCTC 11916 = experiment: MIC, agar-plate dilution method, test strain A; type: cell-based; conditions: Helicobacter pylori, NCTC11916, 72 h, Brucella agar, 37° C., 3 days
Method: (§1) The minimum inhibitory concentration (MIC) of each compound was determined by the agar-plate dilution method based on the standard method advocated by Japan Society of Chemotherapy [cf: Chemotherapy, Jan. '81, p. 76]. The volume of agar medium per plate was 20 ml. Each of the test compounds was dissolved in dimethylsulfoxide at a concentration of 80 mg/ml or 40 mg/ml, and diluted 10 times with sterile distilled water. Furthermore, the aqueous solution of 8 mg/ml or 4 mg/ml was diluted serially 2-fold with sterile distilled water. To 2 ml of the diluted solution was added 18 ml of Brucella agar (BBL Microbiology Systems, Becton Dickinson and Co., Cockeysville, Md. 21030) containing 7% defibrinated horse blood (manufactured by Nippon Bio-supp. Center) and mixed well. Test strains frozen at -80° C. in Brucella broth (BBL) containing 10% horse serum were thawed and inoculated on a Brucella agar slant medium containing 7% defibrinated horse blood. The medium was incubated anaerobically at 37° C. for 3 days in a jar containing a piece of sponge sufficiently impregnated with water and Campy Pak™ (BBL). The organisms grown on the slant medium were collected and suspended in a Brucella broth to correspond to the turbidity of about 10^8 CFU/ml of common bacteria. One platinum loop of inoculum was streaked on the medium plates for determination. The plates were incubated under the same conditions as described above.

C. pylori NCTC 11637 = experiment: MIC, agar-plate dilution method, test strain B; type: cell-based; conditions: Helicobacter pylori, NCTC11637, 72 h, Brucella agar, 37° C., 3 days
Method: as §1

C. pylori PCL 56 = experiment: MIC, agar-plate dilution method, test strain C; type: cell-based; conditions: Helicobacter pylori, PCL56, 72 h, Brucella agar, 37° C., 3 days
Method: as §1, with “above. […] The results are shown in Table 2 and Table 3. | C: C. pylori PCL 56” for “above.”

C. pylori CPY 00111 = experiment: MIC, agar-plate dilution method, test strain D; type: cell-based; conditions: Helicobacter pylori, CPY00111, 72 h, Brucella agar, 37° C., 3 days
Method: as §1

C. pylori KS 13 = experiment: MIC, agar-plate dilution method, test strain E; type: cell-based; conditions: Helicobacter pylori, KS13, 72 h, Brucella agar, 37° C., 3 days
Method: as §1

C. pylori CLO 1 = experiment: MIC, agar-plate dilution method, test strain F; type: cell-based; conditions: Helicobacter pylori, CLO1, 72 h, Brucella agar, 37° C., 3 days
Method: as §1

C. pylori CLO 6 = experiment: MIC, agar-plate dilution method, test strain G; type: cell-based; conditions: Helicobacter pylori, CLO6, 72 h, Brucella agar, 37° C., 3 days
Method: as §1

genus Campylobacter = experiment: Antibacterial activity against the genus Campylobacter (Tables 2 and 3, summary in words); type: cell-based, Campylobacter pylori; conditions: fluorinated alkyl derivatives vs other derivatives, Table 2 and Table 3
Method: as §1

C#CCOc1ccnc(CSc2nc3cc(C(F)(F)F)ccc3[nH]2)c1 [Compound 11]
12.5 µg/mL: MIC (C. pylori NCTC 11916) | MIC (C. pylori NCTC 11637) | MIC (C. pylori PCL 56) | MIC (C. pylori CPY 00111) | MIC (C. pylori KS 13) | MIC (C. pylori CLO 1) | MIC (C. pylori CLO 6)

Cc1c(OCC(F)(F)C(F)(F)F)ccnc1CSc1nc2ccccc2[nH]1 [Compound 13]
1.56 µg/mL: MIC (C. pylori NCTC 11916) | MIC (C. pylori NCTC 11637) | MIC (C. pylori PCL 56) | MIC (C. pylori CPY 00111) | MIC (C. pylori KS 13) | MIC (C. pylori CLO 1) | MIC (C. pylori CLO 6)
stronger antibacterial activity: antibacterial activity compared with other derivatives (genus Campylobacter)

Cc1c(OCC(F)(F)C(F)F)ccnc1CSc1nc2ccccc2[nH]1 [Compound 12]
0.78 µg/mL: MIC (C. pylori NCTC 11637) | MIC (C. pylori CLO 6)
stronger antibacterial activity: antibacterial activity compared with other derivatives (genus Campylobacter)
1.56 µg/mL: MIC (C. pylori NCTC 11916) | MIC (C. pylori PCL 56) | MIC (C. pylori CPY 00111) | MIC (C. pylori KS 13) | MIC (C. pylori CLO 1)

CC(C)Oc1ccnc(CSc2nc3cc(C(F)(F)F)ccc3[nH]2)c1 [Compound 9]
12.5 µg/mL: MIC (C. pylori NCTC 11916) | MIC (C. pylori NCTC 11637) | MIC (C. pylori PCL 56) | MIC (C. pylori CPY 00111) | MIC (C. pylori KS 13) | MIC (C. pylori CLO 1) | MIC (C. pylori CLO 6)

CC(C)COc1ccnc(CSc2nc3ccccc3[nH]2)c1 [Compound 7]
12.5 µg/mL: MIC (C. pylori NCTC 11916) | MIC (C. pylori NCTC 11637) | MIC (C. pylori PCL 56) | MIC (C. pylori CPY 00111) | MIC (C. pylori KS 13) | MIC (C. pylori CLO 1) | MIC (C. pylori CLO 6)

Cc1c(OCC(F)(F)C(F)F)ccnc1C[S+]([O-])c1nc2ccccc2[nH]1 (stereo not shown) [Compound 4]
6.25 µg/mL: MIC (C. pylori NCTC 11637) | MIC (C. pylori PCL 56) | MIC (C. pylori CLO 6)
1.56 µg/mL: MIC (C. pylori NCTC 11916) | MIC (C. pylori CPY 00111) | MIC (C. pylori KS 13)
stronger antibacterial activity: antibacterial activity compared with other derivatives (genus Campylobacter)
0.78 µg/mL: MIC (C. pylori CLO 1)

C=CCOc1ccnc(CSc2nc3cc(C(F)(F)F)ccc3[nH]2)c1 [Compound 10]
25 µg/mL: MIC (C. pylori NCTC 11916) | MIC (C. pylori NCTC 11637) | MIC (C. pylori PCL 56) | MIC (C. pylori CPY 00111) | MIC (C. pylori KS 13) | MIC (C. pylori CLO 1) | MIC (C. pylori CLO 6)

Cc1c(OCC(F)(F)C(F)(F)F)ccnc1C[S+]([O-])c1nc2ccccc2[nH]1 (stereo not shown) [Compound 3]
stronger antibacterial activity: antibacterial activity compared with other derivatives (genus Campylobacter)
6.25 µg/mL: MIC (C. pylori NCTC 11637) | MIC (C. pylori CLO 6)
3.13 µg/mL: MIC (C. pylori NCTC 11916) | MIC (C. pylori PCL 56) | MIC (C. pylori CPY 00111) | MIC (C. pylori KS 13)
1.56 µg/mL: MIC (C. pylori CLO 1)

CC(C)COc1ccnc(CSc2nc3cc(C(F)(F)F)ccc3[nH]2)c1 [Compound 8]
12.5 µg/mL: MIC (C. pylori NCTC 11916) | MIC (C. pylori NCTC 11637) | MIC (C. pylori PCL 56) | MIC (C. pylori CPY 00111) | MIC (C. pylori KS 13) | MIC (C. pylori CLO 1) | MIC (C. pylori CLO 6)
